From PubChem BioAssay AID248 (DTP/NCI, 2004)
Where “and” joins values, the source holds several entries; their conditions need not be identical. Equal entries are not always repeated. Inconclusive results and toxic doses are left out. Cut-off read from the data, not from the text of the source: active = T/C of 150% or more; inactive = T/C below 125%.

Tested on: L1210 leukemia ip in BDF1 mice, survival T/C
Assay: NCI In Vivo Anticancer Drug Screen. Data for tumor model L1210 Leukemia (intraperitoneal) in B6D2F1 (BDF1) mice
Conditions: endpoint: mean survival time, higher = longer survival
Outline: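 Read-out is survival time, reported as the treated-group measurement over the vehicle-control measurement.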

[1] = dose: 100.0 mg/kg/injection, schedule: Q01DX009 (ip), vehicle: other
[2] = dose: 200.0 mg/kg/injection, schedule: Q01DX009 (ip), vehicle: other
[3] = dose: 100.0 mg/kg/injection, schedule: Q01DX009 (ip), vehicle: saline with Tween-80
[4] = dose: 100.0 mg/kg/injection, schedule: Q04DX003 (ip), vehicle: Klucel (hydroxypropylcellulose) (HPC)
[5] = dose: 200.0 mg/kg/injection, schedule: Q01DX009 (ip), vehicle: saline with Tween-80
[6] = dose: 200.0 mg/kg/injection, schedule: Q04DX003 (ip), vehicle: Klucel (hydroxypropylcellulose) (HPC)
[7] = dose: 400.0 mg/kg/injection, schedule: Q04DX003 (ip), vehicle: Klucel (hydroxypropylcellulose) (HPC)
[8] = dose: 100.0 mg/kg/injection, schedule: Q04DX003 (ip), vehicle: saline with Tween-80
[9] = dose: 200.0 mg/kg/injection, schedule: Q04DX003 (ip), vehicle: saline with Tween-80
[10] = dose: 400.0 mg/kg/injection, schedule: Q04DX003 (ip), vehicle: saline with Tween-80
[11] = dose: 100.0 mg/kg/injection, schedule: Q01DX001 (ip), vehicle: Klucel (hydroxypropylcellulose) (HPC)
[12] = dose: 200.0 mg/kg/injection, schedule: Q01DX001 (ip), vehicle: Klucel (hydroxypropylcellulose) (HPC)
[13] = dose: 400.0 mg/kg/injection, schedule: Q01DX001 (ip), vehicle: Klucel (hydroxypropylcellulose) (HPC)
[14] = dose: 100.0 mg/kg/injection, schedule: Q01DX009 (ip), vehicle: Klucel (hydroxypropylcellulose) (HPC)
[15] = dose: 200.0 mg/kg/injection, schedule: Q01DX009 (ip), vehicle: Klucel (hydroxypropylcellulose) (HPC)
[16] = dose: 400.0 mg/kg/injection, schedule: Q01DX009 (ip), vehicle: Klucel (hydroxypropylcellulose) (HPC)

Measured: T/C

CN(C)CC(C)(C)CN1c2ccccc2Sc2ccccc21
inactive: dose: 3.12 mg/kg/injection, schedule: Q01DX009 (ip), vehicle: saline 90 % of control | dose: 6.25 mg/kg/injection, schedule: Q01DX009 (ip), vehicle: saline 103 % of control | dose: 12.5 mg/kg/injection, schedule: Q01DX009 (ip), vehicle: saline 101 % of control | dose: 25.0 mg/kg/injection, schedule: Q01DX009 (ip), vehicle: saline 97 % of control | dose: 25.0 mg/kg/injection, schedule: Q04DX003 (ip), vehicle: saline 101 % of control | dose: 50.0 mg/kg/injection, schedule: Q01DX009 (ip), vehicle: saline 106 % of control | dose: 50.0 mg/kg/injection, schedule: Q04DX003 (ip), vehicle: saline 91 % of control | dose: 100.0 mg/kg/injection, schedule: Q01DX009 (ip), vehicle: saline 100 % of control

CCCCC(=O)NC1=C(Cl)C(=O)c2ccccc2C1=O
inactive: dose: 75.0 mg/kg/injection, schedule: Q01DX001 (ip), vehicle: saline 89 % of control | dose: 150.0 mg/kg/injection, schedule: Q01DX001 (ip), vehicle: saline 90 % of control

CC(C)(C)O.[Zr]
inactive: dose: 25.0 mg/kg/injection, schedule: Q01DX009 (ip), vehicle: other 108 % of control | dose: 50.0 mg/kg/injection, schedule: Q01DX009 (ip), vehicle: other 97 % of control | [1] 90 % of control | dose: 100.0 mg/kg/injection, schedule: Q04DX003 (ip), vehicle: saline 96 % of control | [2] 103 % of control | dose: 200.0 mg/kg/injection, schedule: Q04DX003 (ip), vehicle: saline 98 % of control | dose: 400.0 mg/kg/injection, schedule: Q04DX003 (ip), vehicle: saline 94 % of control

O=[N+]([O-])c1ccc2c(c1)/C(=N/O)CCC2
inactive: [3] 110 % of control | [4] 96 % of control | [5] 92 % of control | [6] 91 % of control | dose: 400.0 mg/kg/injection, schedule: Q01DX009 (ip), vehicle: saline with Tween-80 90 % of control | [7] 104 % of control

CC(=O)c1cc(C)[nH]c1C
inactive: dose: 100.0 mg/kg/injection, schedule: Q01DX009 (ip), vehicle: saline sonified 100 % of control | [4] 89 % of control | [6] 106 % of control | dose: 400.0 mg/kg/injection, schedule: Q01DX009 (ip), vehicle: saline sonified 89 % of control

O=C(O)c1ccc(Nc2ncnc3nc[nH]c23)cc1
inactive: [8] 104 % of control | [9] 96 % of control | [10] 102 % of control

Cc1cc(C2=NCC(C)S2)c(C(C)C)cc1O (stereo not drawn)
inactive: dose: 100.0 mg/kg/injection, schedule: Q04DX002 (ip), vehicle: saline with Tween-80 93 % of control | dose: 200.0 mg/kg/injection, schedule: Q04DX002 (ip), vehicle: saline with Tween-80 104 % of control | dose: 400.0 mg/kg/injection, schedule: Q04DX002 (ip), vehicle: saline with Tween-80 104 % of control

COC1OC2COc3ccccc3OC2C(NC(C)=O)C1O (stereo not drawn)
inactive: [1] 96 % of control | [2] 89 % of control | dose: 400.0 mg/kg/injection, schedule: Q01DX009 (ip), vehicle: other 94 % of control

CNC(=O)Nc1ncn[nH]1
inactive: dose: 75.0 mg/kg/injection, schedule: Q01DX001 (ip), vehicle: carboxymethylcellulose (CMC) 103 % of control | dose: 150.0 mg/kg/injection, schedule: Q01DX001 (ip), vehicle: carboxymethylcellulose (CMC) 98 % of control | dose: 300.0 mg/kg/injection, schedule: Q01DX001 (ip), vehicle: carboxymethylcellulose (CMC) 104 % of control

COC12C3C=CC4C(C=C3)C4C1C2Br (stereo not drawn)
inactive: [11] 98 % of control | [12] 103 % of control | [13] 106 % of control

CN(C)c1ccc(/C=C2\C=Cc3ccccc32)c(F)c1
inactive: [14] 98 % of control | [4] 96 % of control | [15] 101 % of control | [6] 93 % of control | [16] 92 % of control | [7] 96 % of control

COC(=O)C1=C(C)NC(=O)NC1c1ccc(N(CCCl)CCCl)c(OC)c1 (stereo not drawn)
inactive: dose: 3.0 mg/kg/injection, schedule: Q01DX009 (ip), vehicle: Klucel (hydroxypropylcellulose) (HPC) 115 % of control | dose: 6.0 mg/kg/injection, schedule: Q01DX009 (ip), vehicle: Klucel (hydroxypropylcellulose) (HPC) 117 % of control | dose: 12.0 mg/kg/injection, schedule: Q01DX009 (ip), vehicle: Klucel (hydroxypropylcellulose) (HPC) 112 % of control | [11] 109 % of control

c1ccc(CNCCNCCNCc2ccccc2)cc1
inactive: [8] 101 % of control | [9] 98 % of control | [10] 94 % of control

CCCCCC1CCC(O)CC1 (stereo not drawn)
inactive: [14] 95 % of control | [4] 106 % of control | [15] 90 % of control | [6] 111 % of control | [16] 105 % of control | [7] 103 % of control

Cc1ccc(OC/C=C/CSc2ccc(Br)cc2)cc1
inactive: dose: 50.0 mg/kg/injection, schedule: Q01DX009 (ip), vehicle: Klucel (hydroxypropylcellulose) (HPC) 103 % of control | dose: 75.0 mg/kg/injection, schedule: Q01DX001 (ip), vehicle: Klucel (hydroxypropylcellulose) (HPC) 106 % of control | [14] 100 % of control | dose: 150.0 mg/kg/injection, schedule: Q01DX001 (ip), vehicle: Klucel (hydroxypropylcellulose) (HPC) 104 % of control | [15] 102 % of control | dose: 300.0 mg/kg/injection, schedule: Q01DX001 (ip), vehicle: Klucel (hydroxypropylcellulose) (HPC) 98 % of control

CCCC/C(CC)=N\N=C(/CC)CCCC
inactive: dose: 50.0 mg/kg/injection, schedule: Q04DX002 (ip), vehicle: saline 91 % of control | dose: 100.0 mg/kg/injection, schedule: Q04DX002 (ip), vehicle: saline 102 % of control | dose: 200.0 mg/kg/injection, schedule: Q04DX002 (ip), vehicle: saline 88 % of control | dose: 400.0 mg/kg/injection, schedule: Q04DX002 (ip), vehicle: saline 96 % of control

CCCN1CCCN(CCC)C1=O
inactive: dose: 50.0 mg/kg/injection, schedule: Q04DX002 (ip), vehicle: Klucel (hydroxypropylcellulose) (HPC) 102 % of control | dose: 100.0 mg/kg/injection, schedule: Q04DX002 (ip), vehicle: Klucel (hydroxypropylcellulose) (HPC) 102 % of control | dose: 200.0 mg/kg/injection, schedule: Q04DX002 (ip), vehicle: Klucel (hydroxypropylcellulose) (HPC) 93 % of control

Cc1cn(C2OC(CO)C(O)C(O)C2N)c(=O)[nH]c1=O (stereo not drawn)
inactive: dose: 50.0 mg/kg/injection, schedule: Q01DX001 (ip), vehicle: saline 107 % of control | dose: 100.0 mg/kg/injection, schedule: Q01DX001 (ip), vehicle: saline 97 % of control and 103 % of control | dose: 200.0 mg/kg/injection, schedule: Q01DX001 (ip), vehicle: saline 97 % of control and 108 % of control | dose: 400.0 mg/kg/injection, schedule: Q01DX001 (ip), vehicle: saline 103 % of control and 105 % of control

CN(C(=O)NCCCl)c1cccc2c1CCCC2
inactive: [11] 97 % of control | [12] 105 % of control | [13] 111 % of control

Cc1ccc(C(O)c2ccccc2)cc1 (stereo not drawn)
inactive: [3] 98 % of control | [5] 97 % of control
